# Test results from PubChem BioAssay (NCI).
#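 Cells were grown in 96-well plates and exposed to each compound for 48 hours at five concentrations; endpoints were interpolated linearly between bracketing concentrations, or set to the highest concentration if not reached. The concentration for 50% growth inhibition is given as GI50. At the TGI there is no net growth.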
# Tests used:
# Assay in all cases: NCI-60 cell line screen, 48 h
# SNB-19 CNS = system: SNB-19 CNS
# NCI-H23 lung = system: NCI-H23 lung
# 786-0 renal = system: 786-0 renal
# A498 renal = system: A498 renal
# SR leukemia = system: SR leukemia
# MOLT-4 leukemia = system: MOLT-4 leukemia
# UACC-257 melanoma = system: UACC-257 melanoma
# SK-OV-3 ovarian = system: SK-OV-3 ovarian
# SK-MEL-28 melanoma = system: SK-MEL-28 melanoma
# OVCAR-4 ovarian = system: OVCAR-4 ovarian
# MDA-MB-231 breast = system: MDA-MB-231 breast
# SF-268 CNS = system: SF-268 CNS
# UACC-62 melanoma = system: UACC-62 melanoma
# EKVX NSCLC = system: EKVX NSCLC
# SK-MEL-5 melanoma = system: SK-MEL-5 melanoma
# NCI-H460 lung = system: NCI-H460 lung
# KM12 colon = system: KM12 colon
# OVCAR-3 ovarian = system: OVCAR-3 ovarian
# HL-60(TB) leukemia = system: HL-60(TB) leukemia
# UO-31 renal = system: UO-31 renal
# SK-MEL-2 melanoma = system: SK-MEL-2 melanoma
# CCRF-CEM leukemia = system: CCRF-CEM leukemia
# COLO 205 colon = system: COLO 205 colon
# MDA-MB-435 = system: MDA-MB-435
# NCI/ADR-RES ovarian = system: NCI/ADR-RES ovarian
# HCC-2998 colon = system: HCC-2998 colon
# PC-3 prostate = system: PC-3 prostate
# SN12C renal = system: SN12C renal
# U251 CNS = system: U251 CNS
# K-562 leukemia = system: K-562 leukemia
# SF-539 CNS = system: SF-539 CNS
# A549 NSCLC = system: A549 NSCLC
# HOP-92 NSCLC = system: HOP-92 NSCLC
# NCI-H522 lung = system: NCI-H522 lung
# T-47D breast = system: T-47D breast
# OVCAR-8 ovarian = system: OVCAR-8 ovarian
# SF-295 CNS = system: SF-295 CNS
# ACHN renal = system: ACHN renal
# HCT-116 colon = system: HCT-116 colon
# BT-549 breast = system: BT-549 breast
# MALME-3M melanoma = system: MALME-3M melanoma
# MCF7 breast = system: MCF7 breast
# CAKI-1 renal = system: CAKI-1 renal
# HS 578T breast = system: HS 578T breast
# TK-10 renal = system: TK-10 renal
# SNB-75 CNS = system: SNB-75 CNS
# LOX IMVI melanoma = system: LOX IMVI melanoma
# NCI-H226 lung = system: NCI-H226 lung
# OVCAR-5 ovarian = system: OVCAR-5 ovarian
# DU-145 prostate = system: DU-145 prostate
# HT29 colon = system: HT29 colon
# RPMI-8226 leukemia = system: RPMI-8226 leukemia
# M14 melanoma = system: M14 melanoma
# IGROV1 ovarian = system: IGROV1 ovarian
# SW-620 colon = system: SW-620 colon
# HOP-62 NSCLC = system: HOP-62 NSCLC
# HCT-15 colon = system: HCT-15 colon
smiles,measurement,setting,value
O=C1CC(c2ccccc2)Cc2nc3ccc(Cl)cc3cc21 (centres undefined),GI50,SNB-19 CNS,0.462 µM
same,TGI,SNB-19 CNS,> 100 µM
same,GI50,NCI-H23 lung,0.562 µM
same,TGI,NCI-H23 lung,> 100 µM
same,GI50,786-0 renal,0.815 µM
same,TGI,786-0 renal,> 74.7 µM
same,GI50,A498 renal,0.0503 µM
same,TGI,A498 renal,0.401 µM
same,GI50,SR leukemia,0.0553 µM
same,TGI,SR leukemia,35.2 µM
same,GI50,MOLT-4 leukemia,0.0644 µM
same,TGI,MOLT-4 leukemia,> 100 µM
same,GI50,UACC-257 melanoma,15.6 µM
same,TGI,UACC-257 melanoma,> 85.4 µM
same,GI50,SK-OV-3 ovarian,0.753 µM
same,TGI,SK-OV-3 ovarian,> 100 µM
same,GI50,SK-MEL-28 melanoma,1.05 µM
same,TGI,SK-MEL-28 melanoma,> 100 µM
same,GI50,OVCAR-4 ovarian,7.26 µM
same,TGI,OVCAR-4 ovarian,> 100 µM
same,GI50,MDA-MB-231 breast,0.538 µM
same,TGI,MDA-MB-231 breast,> 100 µM
same,GI50,SF-268 CNS,6.04 µM
same,TGI,SF-268 CNS,> 100 µM
same,GI50,UACC-62 melanoma,0.15 µM
same,TGI,UACC-62 melanoma,35.5 µM
same,GI50,EKVX NSCLC,0.732 µM
same,TGI,EKVX NSCLC,> 100 µM
same,GI50,SK-MEL-5 melanoma,0.309 µM
same,TGI,SK-MEL-5 melanoma,2.37 µM
same,GI50,NCI-H460 lung,0.343 µM
same,TGI,NCI-H460 lung,> 34.5 µM
same,GI50,KM12 colon,0.342 µM
same,TGI,KM12 colon,22.7 µM
same,GI50,OVCAR-3 ovarian,0.313 µM
same,TGI,OVCAR-3 ovarian,1.16 µM
same,GI50,HL-60(TB) leukemia,0.143 µM
same,TGI,HL-60(TB) leukemia,0.566 µM
same,GI50,UO-31 renal,0.263 µM
same,TGI,UO-31 renal,> 93 µM
same,GI50,SK-MEL-2 melanoma,0.207 µM
same,TGI,SK-MEL-2 melanoma,> 100 µM
same,GI50,CCRF-CEM leukemia,0.0395 µM
same,TGI,CCRF-CEM leukemia,> 100 µM
same,GI50,COLO 205 colon,0.344 µM
same,TGI,COLO 205 colon,3 µM
same,GI50,MDA-MB-435,0.0235 µM
same,TGI,MDA-MB-435,0.0649 µM
same,GI50,NCI/ADR-RES ovarian,0.0586 µM
same,TGI,NCI/ADR-RES ovarian,5.21 µM
same,GI50,HCC-2998 colon,2.39 µM
same,TGI,HCC-2998 colon,20.2 µM
same,GI50,PC-3 prostate,0.293 µM
same,TGI,PC-3 prostate,> 100 µM
same,GI50,SN12C renal,0.518 µM
same,TGI,SN12C renal,> 84.9 µM
same,GI50,U251 CNS,0.644 µM
same,TGI,U251 CNS,> 62.2 µM
same,GI50,K-562 leukemia,0.0859 µM
same,TGI,K-562 leukemia,> 100 µM
same,GI50,SF-539 CNS,0.211 µM
same,TGI,SF-539 CNS,0.642 µM
same,GI50,A549 NSCLC,0.451 µM
same,TGI,A549 NSCLC,> 100 µM
same,GI50,HOP-92 NSCLC,1.51 µM
same,TGI,HOP-92 NSCLC,42.5 µM
same,GI50,NCI-H522 lung,0.194 µM
same,TGI,NCI-H522 lung,19 µM
same,GI50,T-47D breast,6.17 µM
same,TGI,T-47D breast,> 89 µM
same,GI50,OVCAR-8 ovarian,0.386 µM
same,TGI,OVCAR-8 ovarian,> 100 µM
same,GI50,SF-295 CNS,0.339 µM
same,TGI,SF-295 CNS,17.3 µM
same,GI50,ACHN renal,0.261 µM
same,TGI,ACHN renal,> 100 µM
same,GI50,HCT-116 colon,0.0472 µM
same,TGI,HCT-116 colon,> 49.5 µM
same,GI50,BT-549 breast,0.503 µM
same,TGI,BT-549 breast,11.3 µM
same,GI50,MALME-3M melanoma,0.0453 µM
same,TGI,MALME-3M melanoma,52.9 µM
same,GI50,MCF7 breast,2.42 µM
same,TGI,MCF7 breast,> 100 µM
same,GI50,CAKI-1 renal,0.112 µM
same,TGI,CAKI-1 renal,> 100 µM
same,GI50,HS 578T breast,0.351 µM
same,TGI,HS 578T breast,> 100 µM
same,GI50,TK-10 renal,22.3 µM
same,TGI,TK-10 renal,> 100 µM
same,GI50,SNB-75 CNS,0.126 µM
same,TGI,SNB-75 CNS,70.3 µM
same,GI50,LOX IMVI melanoma,0.626 µM
same,TGI,LOX IMVI melanoma,26.2 µM
same,GI50,NCI-H226 lung,0.795 µM
same,TGI,NCI-H226 lung,> 23.6 µM
same,GI50,OVCAR-5 ovarian,0.791 µM
same,TGI,OVCAR-5 ovarian,> 100 µM
same,GI50,DU-145 prostate,0.217 µM
same,TGI,DU-145 prostate,> 100 µM
same,GI50,HT29 colon,0.246 µM
same,TGI,HT29 colon,> 100 µM
same,GI50,RPMI-8226 leukemia,2.78 µM
same,TGI,RPMI-8226 leukemia,37.8 µM
same,GI50,M14 melanoma,0.0356 µM
same,TGI,M14 melanoma,23.8 µM
same,GI50,IGROV1 ovarian,0.397 µM
same,TGI,IGROV1 ovarian,> 100 µM
same,GI50,SW-620 colon,0.323 µM
same,TGI,SW-620 colon,> 100 µM
same,GI50,HOP-62 NSCLC,0.459 µM
same,TGI,HOP-62 NSCLC,> 100 µM
same,GI50,HCT-15 colon,0.511 µM
same,TGI,HCT-15 colon,66.6 µM
